Results as given in ChEMBL document CHEMBL1154698, “Discovery of 3-aryl-4-isoxazolecarboxamides as TGR5 receptor agonists” (J Med Chem, 2009).
≈ marks a conversion by molar mass, not a printed value. Values belong to the molecule of their own block, whether it stands above or below them. Calls of active or inactive are those of the source. The rule behind the calls is not given here.

Assays:
U2OS = assay: Increase in MRE/CRE-driven gene expression in human U2OS cells by luciferase reporter gene assay; assay type: functional, cell-based
[1] = Aqueous solubility of the compound; assay type: physicochemical; details: buffer
[2] = Permeability in artificial membrane assay; assay type: ADME, cell membranes
[3] = molecular target: T1, G-protein coupled bile acid receptor 1 (Rattus norvegicus, UniProt Q80T02); assay: Agonist activity at rat TGR5 expressed in melanophores assessed as melanosome dispersion by melanophore assay; assay type: functional
T1 sequence (Q80T02 whole entry): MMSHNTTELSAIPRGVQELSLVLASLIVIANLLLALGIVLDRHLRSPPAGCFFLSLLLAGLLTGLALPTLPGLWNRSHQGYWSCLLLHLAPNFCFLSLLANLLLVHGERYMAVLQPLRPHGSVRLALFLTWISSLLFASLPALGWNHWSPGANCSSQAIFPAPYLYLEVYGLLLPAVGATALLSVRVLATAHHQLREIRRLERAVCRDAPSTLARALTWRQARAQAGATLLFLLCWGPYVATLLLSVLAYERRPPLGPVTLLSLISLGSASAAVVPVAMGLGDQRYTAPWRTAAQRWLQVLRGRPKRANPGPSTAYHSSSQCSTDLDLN

[4] = Agonist activity at canine TGR5 expressed in melanophores assessed as melanosome dispersion by melanophore assay; assay type: functional, Canis lupus familiaris
Melanophore = assay: Induction of melanosome dispersion in melanophores; assay type: functional, cell-based; details: Xenopus laevis
[5] = Half life in CD1 rat at 2.5 mg/kg, iv or 5 mg/kg, po; assay type: ADME, organism-based; details: in vivo
[6] = Clearance in CD1 rat at 2.5 mg/kg, iv or 5 mg/kg, po; assay type: ADME, organism-based; details: in vivo
[7] = Volume of distribution at steady state in CD1 rat at 2.5 mg/kg, iv or 5 mg/kg, po; assay type: ADME, organism-based; details: in vivo, read-out: Vdss
[8] = Oral bioavailability in CD1 rat 5 mg/kg; assay type: ADME, organism-based; details: in vivo
[9] = Intrinsic clearance in rat hepatocytes; assay type: ADME, cell-based, Liver, Hepatocyte
[10] = Intrinsic clearance in dog hepatocytes; assay type: ADME, cell-based, Canis lupus familiaris, Liver, Hepatocyte
Cytochrome P450 2C9 = Cytochrome P450 2C9 (Homo sapiens, UniProt P11712); assay: Inhibition of CYP2C9; assay type: ADME
Cytochrome P450 2C9, sequence (P11712 whole entry): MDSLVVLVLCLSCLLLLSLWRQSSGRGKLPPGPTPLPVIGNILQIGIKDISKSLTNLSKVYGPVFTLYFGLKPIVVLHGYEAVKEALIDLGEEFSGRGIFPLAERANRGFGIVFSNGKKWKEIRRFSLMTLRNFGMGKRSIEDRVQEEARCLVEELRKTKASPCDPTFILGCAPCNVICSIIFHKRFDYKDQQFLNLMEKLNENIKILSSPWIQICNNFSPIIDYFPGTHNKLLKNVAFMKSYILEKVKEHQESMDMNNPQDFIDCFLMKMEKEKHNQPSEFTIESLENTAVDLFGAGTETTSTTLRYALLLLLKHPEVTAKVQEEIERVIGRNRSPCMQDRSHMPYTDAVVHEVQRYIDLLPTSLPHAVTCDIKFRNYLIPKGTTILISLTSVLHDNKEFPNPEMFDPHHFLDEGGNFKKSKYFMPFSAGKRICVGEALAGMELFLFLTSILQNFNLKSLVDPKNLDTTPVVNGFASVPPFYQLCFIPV

Cytochrome P450 2D6 = Cytochrome P450 2D6 (Homo sapiens, UniProt P10635); assay: Inhibition of CYP2D6; assay type: ADME
Cytochrome P450 2D6, sequence (P10635 whole entry): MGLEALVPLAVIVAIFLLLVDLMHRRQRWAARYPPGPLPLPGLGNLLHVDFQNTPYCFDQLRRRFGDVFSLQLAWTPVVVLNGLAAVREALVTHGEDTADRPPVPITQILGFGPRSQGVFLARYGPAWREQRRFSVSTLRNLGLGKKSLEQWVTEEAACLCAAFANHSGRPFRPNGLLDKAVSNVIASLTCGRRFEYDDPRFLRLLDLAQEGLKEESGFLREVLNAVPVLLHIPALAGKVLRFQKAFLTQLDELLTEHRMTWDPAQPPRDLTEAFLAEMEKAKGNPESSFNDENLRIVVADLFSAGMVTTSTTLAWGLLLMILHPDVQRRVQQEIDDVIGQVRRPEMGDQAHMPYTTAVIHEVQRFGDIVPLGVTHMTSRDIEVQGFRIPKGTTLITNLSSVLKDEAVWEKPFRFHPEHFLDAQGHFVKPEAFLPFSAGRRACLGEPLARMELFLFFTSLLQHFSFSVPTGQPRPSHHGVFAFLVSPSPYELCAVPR

Monocyte = assay: Inhibition of LPS-stimulated TNFalpha secretion in human primary monocytes; assay type: functional, cell-based
Canis familiaris [11] = assay: Decrease in portal vein glucose levels in intrajejeunally dosed conscious Beagle dog at 1 mg.kg co-administered with glucose challenge; assay type: functional, organism-based; details: Canis lupus familiaris
Canis familiaris [12] = assay: Increase in GLP1 secretion in hepatic portal vein of intrajejeunally dosed conscious Beagle dog at 1 mg.kg co-administered with glucose challenge; assay type: functional, organism-based; details: Canis lupus familiaris
[13] = Oral bioavailability in CD1 rat at 30 mg/kg; assay type: ADME, organism-based; details: in vivo
[14] = Volume of distribution at steady state in CD1 rat at 3 mg/kg, iv or 30 mg/kg, po; assay type: ADME, organism-based; details: in vivo, read-out: Vdss
[15] = Clearance in CD1 rat at 3 mg/kg, iv or 30 mg/kg, po; assay type: ADME, organism-based; details: in vivo
[16] = Half life in CD1 rat at 3 mg/kg, iv or 30 mg/kg, po; assay type: ADME, organism-based; details: in vivo
[17] = Half life in dog at 3 mg/kg, iv or 30 mg/kg, po; assay type: ADME, organism-based, Canis lupus familiaris; details: in vivo
[18] = Clearance in dog at 3 mg/kg, iv or 30 mg/kg, po; assay type: ADME, organism-based, Canis lupus familiaris; details: in vivo
[19] = Volume of distribution at steady state in dog at 3 mg/kg, iv or 30 mg/kg, po; assay type: ADME, organism-based, Canis lupus familiaris; details: in vivo, read-out: Vdss
[20] = Oral bioavailability in dog at 30 mg/kg; assay type: ADME, organism-based, Canis lupus familiaris; details: in vivo

EC50 (U2OS): > 50.1 µM | solubility [1]: 246 µM (≈ 88.9 µg/mL) | permeability [2]: 422 nanometer/sec | EC50 [3]: 2000 nM | pEC50 [4]: 7.2 | EC50 (Melanophore): 20 µM | half-life [5]: 396 min | clearance [6]: 85 mL/min/kg | Vd [7]: 7.1 L/kg | bioavailability [8]: 1% | CLint [9]: 48 mL/min/g | CLint [10]: 90 mL/min/g | IC50 (Cytochrome P450 2C9): > 10 µM | IC50 (Cytochrome P450 2D6): > 10 µM | IC50 (Monocyte): 158 nM
Structure (SMILES): Cc1onc(-c2ccccc2Cl)c1C(=O)N(C)c1ccc(Cl)cc1
Activity (Canis familiaris [11]): Active | Activity (Canis familiaris [12]): Active

solubility [1]: 112 µM (≈ 42 µg/mL) | permeability [2]: 257 nanometer/sec | bioavailability [13]: < 1% | Vd [14]: 40 L/kg | clearance [15]: 148 mL/min/kg | half-life [16]: 522 min | half-life [17]: 312 min | clearance [18]: 39 mL/min/kg | Vd [19]: 8.6 L/kg | bioavailability [20]: 0.3% | CLint [9]: 54 mL/min/g | CLint [10]: 111 mL/min/g
Structure (SMILES): Cc1ccc(N(C)C(=O)c2c(-c3ccccc3Cl)noc2C)cc1Cl

solubility [1]: 134 µM (≈ 50.3 µg/mL) | permeability [2]: 310 nanometer/sec
Structure (SMILES): CCN(C(=O)c1c(-c2ccccc2Cl)noc1C)c1cccc(Cl)c1
